Test results as given in paper PMC7948503, “Optimization of a peptide ligand for the adhesion GPCR ADGRG2 provides a potent tool to explore receptor biology” (The Journal of Biological Chemistry, 2020).
Non-standard residues stand in square brackets, D forms with d. Residues, ends and D or L forms follow the SMILES beside them. Primed or numbered codes have the meaning given here. No end group written: not given here. *: point of attachment. FITC = O=C1OC2(c3ccc(O)cc3Oc3cc(O)ccc32)c2ccc(NC(=S)*)cc21; Phe(4-Me) = Cc1ccc(C[C@H](N)C(=O)O)cc1; FITC′ = not defined here

How the values were obtained:
Rluc-ADGRG2-ΔGPS-β W757A = experiment: BRET binding of FITC-VPM-p15; parameters: species or system mouse; settings: HEK293, BRET saturation binding, repeated 6 times
Procedure: (§1) The binding capacities of ADGRG2 WT or its mutants for VPM-p15 were determined by BRET assay, which has been used in previous studies ([27], [28], [29]). We fused the N terminus of ADGRG2 with a Rluc fragment and coupled FITC to the C terminus of VPM-p15 to facilitate BRET measurement. We stimulated the HEK293 cells transfected with Rluc-ADGRG2-ΔGPS-β wildtype (WT) or mutants by increasing the concentration of FITC-conjugated VPM-p15, and their binding abilities were determined by fitting the data with the saturation curves.
(§2) In the detection of binding capacities of ADGRG2 WT or its mutants for VPM-p15, HEK293 cells were transfected with Rluc-ADGRG2-ΔGPS-β or mutants. Transfected cells were stimulated by increasing the concentration of FITC-conjugated VPM-p15. Binding capacities were determined by BRET, EC50 values of ADGRG2 WT and its mutants for binding VPM-p15 were calculated by GraphPad, and data were normalized by EC50 of WT.

Rluc-ADGRG2-ΔGPS-β I758A = experiment: BRET binding of FITC-VPM-p15; parameters: species or system mouse; settings: HEK293, BRET saturation binding, repeated 6 times
Procedure: as §1, §2

Rluc-ADGRG2-ΔGPS-β W824A = experiment: BRET binding of FITC-VPM-p15; parameters: species or system mouse; settings: HEK293, BRET saturation binding, repeated 6 times
Procedure: as §1, §2

Rluc-ADGRG2-ΔGPS-β F828A = target: T1, Rluc-ADGRG2-ΔGPS-β F828A (Mus musculus, UniProt Q8CJ12, F842A); experiment: BRET binding of FITC-VPM-p15; settings: mutant F828A
T1 construct: expressed in transfected cells; host or cells: HEK293
Procedure: as §1, §2

Rluc-ADGRG2-ΔGPS-β V769A = target: T2, Rluc-ADGRG2-ΔGPS-β V769A (Mus musculus, UniProt Q8CJ12, V783A); experiment: BRET binding of FITC-VPM-p15; settings: mutant V769A
T2 construct: expressed in transfected cells; host or cells: HEK293
Procedure: as §1, §2

Rluc-ADGRG2-ΔGPS-β V768A = target: T3, Rluc-ADGRG2-ΔGPS-β V768A (Mus musculus, UniProt Q8CJ12, V782A); experiment: BRET binding of FITC-VPM-p15; settings: mutant V768A
T3 construct: the entire ECD (including the entire GPS motif) was removed (ADGRG2-ΔGPS-β); expressed in transfected cells; host or cells: HEK293
Procedure: as §1, §2

Rluc-ADGRG2-ΔGPS-β F764A = target: T4, Rluc-ADGRG2-ΔGPS-β F764A (Mus musculus, UniProt Q8CJ12, F778A); experiment: BRET binding of FITC-VPM-p15; settings: mutant F764A
T4 construct: the entire ECD (including the entire GPS motif) was removed (ADGRG2-ΔGPS-β); expressed in transfected cells; host or cells: HEK293
Procedure: as §1, §2

Rluc-ADGRG2-ΔGPS-β F772A = target: T5, Rluc-ADGRG2-ΔGPS-β F772A (Mus musculus, UniProt Q8CJ12, F786A); experiment: BRET binding of FITC-VPM-p15; settings: mutant F772A
T5 construct: expressed in transfected cells; host or cells: HEK293
Procedure: as §1, §2

ADGRG2-ΔGPS-β = target: T6, ADGRG2-ΔGPS-β (Mus musculus, UniProt Q8CJ12); experiment: GloSensor cAMP assay, HEK293 transfected with ADGRG2-ΔGPS-β; format: cell-based
T6 construct: the entire ECD (including the entire GPS motif) was removed (ADGRG2-ΔGPS-β); expressed in transfected cells; host or cells: HEK293
Source text: Wildtype ADGRG2 full-length (ADGRG2-FL) was cloned from mouse total cDNA libraries using the following primers: forward, […]; reverse, […], and then ADGRG2-FL, ADGRG2 C-terminal truncation mutant (ADGRG2-β), and ADGRG2-ΔGPS-β (the entire ECD of ADGRG2 was deleted) were subcloned into the pcDNA3.1 expression vector. The ADGRG2-ΔGPS-β mutants (T610A, Y611A, C614A, S661A, W662A, I663A, L665A, Y666A，N667A, F671A, L679A, L683A, I730A, V731A, F741A, F747A, W757A, I758A, N759A, S760A, V762A, F764A, Y765A, V768A, V769A, F772A, V774A, W824A, F826A, F828A, F829A, V834A, V836A, F838A, M839A, I844A, F845A) were generated using a QuikChange Mutagenesis Kit (Stratagene). All mutations were verified by DNA sequencing.
Human embryonic kidney 293 (HEK293) cells were maintained in Dulbecco’s modified Eagle’s medium supplemented with 10% fetal bovine serum, penicillin (100 IU/ml), and streptomycin (100 μg/ml) as described ([6], [38]). For receptor or other protein expression, plasmids carrying the desired genes were transfected into cells using Lipofectamine 2000 (Invitrogen).
The Glosensor cAMP assay was performed as described ([6], [39], [40]). HEK293 cells were transfected with the GloSensor plasmid and the desired expression plasmids in 24-well dishes. Twenty-four hours after transfection, the cells were plated on 96-well plates at a cell density of 20,000 cells/well. The cells were maintained in Dulbecco’s modified Eagle’s medium for another 24 h, washed with PBS, and then incubated with 100 μl of solution containing 10% fetal bovine serum, 2% (v/v) GloSensor cAMP reagent, and 88% CO2-independent medium in each well for 2 h. The cAMP signal was examined using a luminescence counter (Mithras LB 940).

Rluc-ADGRG2-ΔGPS-β I741A = target: T7, Rluc-ADGRG2-ΔGPS-β I741A (mouse, UniProt Q8CJ12-3 38-995, I741A); experiment: FRET or BRET; HEK293 cells transfected with Rluc-ADGRG2-ΔGPS-β WT or mutants, stimulated by increasing concentrations of FITC-conjugated VPM-p15; saturation curves fitted with GraphPad; each experiment repeated 6 times; settings: one partner purified
T7 construct: ADGRG2 (GPR64), mouse, ADGRG2-ΔGPS-β: the entire ECD removed; also called F741A (as the methods list it); source: HEK293, transfected, on cells; not shown: Rluc, N-terminal, kept

Rluc-ADGRG2-ΔGPS-β Y666A = target: T8, Rluc-ADGRG2-ΔGPS-β Y666A (mouse, UniProt Q8CJ12-3 38-995, Y666A); experiment: as above; settings: one partner purified
T8 construct: ADGRG2 (GPR64), mouse, ADGRG2-ΔGPS-β: the entire ECD removed; source: HEK293, transfected, on cells; not shown: Rluc, N-terminal, kept

[1] = Kd(mutated ADGRG2-ΔGPS-β)/Kd(WT)

T6 sequence (Q8CJ12 618-1009 limits assumed, stated change not applied): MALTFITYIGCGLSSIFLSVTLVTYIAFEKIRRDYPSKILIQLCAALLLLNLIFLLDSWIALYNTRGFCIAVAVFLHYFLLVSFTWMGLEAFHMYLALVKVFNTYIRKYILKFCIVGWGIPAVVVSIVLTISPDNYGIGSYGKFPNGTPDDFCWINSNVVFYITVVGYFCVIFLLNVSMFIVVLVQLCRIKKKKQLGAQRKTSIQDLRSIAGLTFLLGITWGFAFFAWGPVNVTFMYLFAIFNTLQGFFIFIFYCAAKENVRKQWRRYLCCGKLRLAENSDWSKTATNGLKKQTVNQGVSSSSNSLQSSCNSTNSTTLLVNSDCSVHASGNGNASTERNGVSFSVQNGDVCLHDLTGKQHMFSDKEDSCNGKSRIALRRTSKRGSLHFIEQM
T5 sequence (Q8CJ12 614-1009 F786A): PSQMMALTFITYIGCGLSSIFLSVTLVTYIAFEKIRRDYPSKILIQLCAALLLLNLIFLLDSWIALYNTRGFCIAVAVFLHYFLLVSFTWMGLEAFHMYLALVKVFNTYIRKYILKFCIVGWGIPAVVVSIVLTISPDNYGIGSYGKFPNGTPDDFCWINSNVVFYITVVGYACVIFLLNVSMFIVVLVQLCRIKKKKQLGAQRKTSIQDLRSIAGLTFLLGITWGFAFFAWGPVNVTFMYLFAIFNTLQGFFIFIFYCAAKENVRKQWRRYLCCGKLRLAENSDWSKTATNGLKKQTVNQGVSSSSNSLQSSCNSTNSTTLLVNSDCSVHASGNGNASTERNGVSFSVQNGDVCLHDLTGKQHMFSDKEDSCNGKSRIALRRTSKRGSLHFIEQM
T2 sequence (Q8CJ12 614-1009 V783A): as the sequence (Q8CJ12 614-1009 F786A) above, with V170A, A173F counted along it
T1 sequence (Q8CJ12 614-1009 F842A): as the sequence (Q8CJ12 614-1009 F786A) above, with A173F, F229A counted along it
T3 sequence (Q8CJ12 618-1009 V782A limits assumed): as the sequence (Q8CJ12 618-1009 limits assumed, stated change not applied) above, with V165A counted along it
T4 sequence (Q8CJ12 618-1009 F778A limits assumed): as the sequence (Q8CJ12 618-1009 limits assumed, stated change not applied) above, with F161A counted along it
T7 sequence (Q8CJ12 other isoform, or with tags, fused parts or gaps I741A | I741A | I741A I741A): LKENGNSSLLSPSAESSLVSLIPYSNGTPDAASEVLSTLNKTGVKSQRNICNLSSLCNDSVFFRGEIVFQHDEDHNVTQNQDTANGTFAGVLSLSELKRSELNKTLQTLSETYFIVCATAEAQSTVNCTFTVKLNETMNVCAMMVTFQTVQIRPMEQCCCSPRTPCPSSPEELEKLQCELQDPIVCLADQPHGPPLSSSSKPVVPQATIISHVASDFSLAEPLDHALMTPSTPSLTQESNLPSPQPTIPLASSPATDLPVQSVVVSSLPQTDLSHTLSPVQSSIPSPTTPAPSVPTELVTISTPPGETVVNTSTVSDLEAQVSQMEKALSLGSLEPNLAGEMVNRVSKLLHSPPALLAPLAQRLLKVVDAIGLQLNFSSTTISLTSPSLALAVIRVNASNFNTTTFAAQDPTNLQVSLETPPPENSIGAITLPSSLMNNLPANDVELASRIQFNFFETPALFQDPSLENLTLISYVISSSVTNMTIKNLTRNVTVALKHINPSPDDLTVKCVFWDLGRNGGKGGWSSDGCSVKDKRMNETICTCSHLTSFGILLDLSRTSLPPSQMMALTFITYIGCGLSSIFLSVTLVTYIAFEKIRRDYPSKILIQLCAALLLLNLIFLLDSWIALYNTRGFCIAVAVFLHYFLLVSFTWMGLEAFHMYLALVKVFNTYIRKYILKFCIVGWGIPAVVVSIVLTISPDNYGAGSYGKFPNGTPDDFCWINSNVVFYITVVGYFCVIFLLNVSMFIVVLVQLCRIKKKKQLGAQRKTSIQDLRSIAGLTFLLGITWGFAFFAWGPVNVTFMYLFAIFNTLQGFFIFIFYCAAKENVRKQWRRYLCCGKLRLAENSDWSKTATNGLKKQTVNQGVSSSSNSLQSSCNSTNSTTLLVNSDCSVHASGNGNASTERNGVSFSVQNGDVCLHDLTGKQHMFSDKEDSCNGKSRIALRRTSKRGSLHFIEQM
T8 sequence (Q8CJ12 other isoform, or with tags, fused parts or gaps Y666A | Y666A | Y666A Y666A): as the sequence (Q8CJ12 other isoform, or with tags, fused parts or gaps I741A | I741A | I741A I741A) above, with Y629A, A704I counted along it

CC[C@H](C)[C@H](NC(=O)CNC(=O)[C@H](Cc1ccc(C)cc1)NC(=O)[C@H](CO)NC(=O)[C@@H](N)C(C)C)C(=O)N[C@@H](CC(C)C)C(=O)N[C@@H](CC(C)C)C(=O)N[C@@H](CC(=O)O)C(=O)N[C@@H](CC(C)C)C(=O)N[C@@H](CO)C(=O)N[C@@H](CCCNC(=N)N)C(=O)N[C@H](C(=O)N[C@@H](CO)C(=O)N[C@@H](CC(C)C)C(=O)N1CCC[C@H]1C(=O)N[C@@H](CCCCNC(=S)Nc1ccc2c(c1)C(=O)OC21c2ccc(O)cc2Oc2cc(O)ccc21)C(=O)O)[C@@H](C)O [FITC-VPM-p15] (H-VS[Phe(4-Me)]GILLDLSRTSLPK(FITC)-OH; N-terminus and C-terminus assumed)
Binding to mutant (result in words across EC50 / Fmut / Bmax) (Rluc-ADGRG2-ΔGPS-β W757A): No binding
Binding to mutant (result in words across EC50 / Fmut / Bmax) (Rluc-ADGRG2-ΔGPS-β I758A): No binding
Binding to mutant (result in words across EC50 / Fmut / Bmax) (Rluc-ADGRG2-ΔGPS-β W824A): No binding
Fmut (Rluc-ADGRG2-ΔGPS-β F828A; [1]): 1.247
Bmax (Rluc-ADGRG2-ΔGPS-β F828A; binding Bmax (BRET)): 0.706±0.006
Fmut (Rluc-ADGRG2-ΔGPS-β V769A; [1]): 1.145
Bmax (Rluc-ADGRG2-ΔGPS-β V769A; binding Bmax (BRET)): 0.763±0.074
Fmut (Rluc-ADGRG2-ΔGPS-β V768A; [1]): 1.112
Bmax (Rluc-ADGRG2-ΔGPS-β V768A; binding Bmax (BRET)): 0.792±0.029
Fmut (Rluc-ADGRG2-ΔGPS-β F764A; [1]): 1.183
Bmax (Rluc-ADGRG2-ΔGPS-β F764A; binding Bmax (BRET)): 0.814±0.039
Fmut (Rluc-ADGRG2-ΔGPS-β F772A; [1]): 0.903
Bmax (Rluc-ADGRG2-ΔGPS-β F772A; binding Bmax (BRET)): 0.795±0.021

CC[C@H](C)[C@H](NC(=O)CNC(=O)[C@H](Cc1ccc(C)cc1)NC(=O)[C@H](CO)NC(=O)[C@@H](N)C(C)C)C(=O)N[C@@H](CC(C)C)C(=O)N[C@@H](CC(C)C)C(=O)N[C@@H](CC(=O)O)C(=O)N[C@@H](CC(C)C)C(=O)N[C@@H](CO)C(=O)N[C@@H](CCCNC(=N)N)C(=O)N[C@H](C(=O)N[C@@H](CO)C(=O)N[C@@H](CC(C)C)C(=O)N1CCC[C@H]1C(=O)O)[C@@H](C)O [VPM-p15] (H-VS[Phe(4-Me)]GILLDLSRTSLP-OH)
EC50 (ADGRG2-ΔGPS-β; cAMP Glosensor, ADGRG2-ΔGPS-β, HEK293): 1410 ± 160 nM
EC50 compared with wildtype p15 or other mutants (ADGRG2-ΔGPS-β; concentration-response curves, cAMP Glosensor, ADGRG2-ΔGPS-β): significant lower EC50 than other mutants
EC50 (ADGRG2-ΔGPS-β; receptor WT (Table S4), HEK293, cAMP Glosensor): 1060 nM

VS[Phe(4-Me)]GILLDLSRTSLP-{FITC′} [FITC-conjugated VPM-p15 (ADGRG2 Stachel peptide p15 T1V/F3Phe(4-Me))]
EC50 (Rluc-ADGRG2-ΔGPS-β I741A): 669 nM
EC50 (Rluc-ADGRG2-ΔGPS-β Y666A): 838 nM
